These results are taken from publication PMC7756582, “Prodrugs of γ‐Alkyl‐Modified Nucleoside Triphosphates: Improved Inhibition of HIV Reverse Transcriptase” (Angewandte Chemie (International Ed. in English), 2020).

A short description of series [1]: Chemical hydrolysis in aqueous phosphate buffer (PBS, pH 7.3). Type of series: physicochemical. Particulars: aqueous 25 mM phosphate buffer, pH 7.3, 37 °C; removal of AB group; n.h. = no hydrolysis observed through cleavage of AB-mask. How it is done: γ‐(AB,alkyl)‐NTP prodrugs 6 and γ‐alkyl‐NTPs 7 were incubated in aqueous phosphate buffer (PBS, 25 mM, pH 7.3), or were exposed to pig liver esterase (PLE) in phosphate buffer (PBS) and to human CD4^+ T‐lymphocyte cell extracts to study their stability and the product distribution. The hydrolysis mixtures were analyzed by means of analytical rp‐18‐HPLC. The calculated half‐lives of prodrugs 6 (Table 1, t 1/2) reflect the removal of the bioreversible AB group to yield γ‐alkyl‐NTPs 7. Possible hydrolysis pathways and products are summarized in Scheme 4.
As hydrolysis products, a predominant formation of γ‐alkyl‐d4TTPs 7 and a very small amount of d4TDP […] was detected (approximately 3 %). After consumption of the starting material, no further increase of d4TDP concentration was observed. This supports the hypothesis that only the double‐γ‐esterified d4TTP prodrugs 6 were prone to a bond breakage between the γ‐ and β‐phosphate. […] In contrast to previous studies with TriPPPro‐NTPs 5 containing a second cleavable mask (first generation NTP prodrugs),[ ^23 , ^24 , ^25 ] no d4TTP was detected in these studies using 6 or 7. A side reaction occurred during the studies using compounds 7 that led to the formation of thymine by the cleavage of the glycosidic bond as reported before.[ ^19 , ^22 ]
(§1) ProLab 300 from Schott Co.. Thermomixer: Eppendorf Thermomixer 5436 and CellMedia Thermoschüttler basic were used. […]
Chemical hydrolysis of prodrugs of γ-(AB,alkyl) d4TTP 6 as well as the γ-alkyl-NTPs 7,15:
Stock solutions (50mM in DMSO-d6) of compounds 6,7 were prepared. After dilution of 11 µL stock solution with 100 µL milliQ water and 189 µL DMSO-d6 to 1.9mM hydrolysis solutions the reaction was started by addition of 300 µL phosphate buffer saline (PBS, 50mM, pH 7.3). The solution was incubated at 37 C in a thermomixer. An initial aliquot (25 µL) was taken directly and analyzed by analytical HPLC at 265-266 nm. Further aliquots were taken for monitoring the kinetic hydrolysis. The exponential decay curves (pseudo-first order) based on absolute integral values were calculated with commercially available software (OriginPro 9.0G) and yielded the half-lives t1/2 of the prodrugs via one determination. […]
The calculation of t1/2 was performed analogously to that for the chemical hydrolysis studies.
(§2) Preparation of cell extracts: Human CD4+ T-lymphocyte CEM cells were grown in RPMI-1640-based cell culture medium to a final density of ~3·10^6 cells/ml. Then, cells were centrifuged for 10 min at 1,250 rpm at 4 °C, washed twice with cold PBS, and the pellet was re-suspended at 10^8 cells/ml and sonicated (Hielscher Ultrasound Techn., 100% amplitude, 3·times for 10 sec) to destroy cell integrity. The resulting cell suspension was then centrifuged at 10,000 rpm to remove cell debris, and the supernatant divided in aliquots before being frozen at -80 C and used.
(1 picture or pasted object on this page, not shown here)

A short description of series [2]: Enzyme-catalyzed hydrolysis in human CD4+ T-lymphocyte CEM cell extracts. Type of series: in vitro ADME. The following applies: CEM/0 cell extracts (CD4+ T-lymphocytes); human CD4+ T-lymphocyte CEM cell extracts, 37 °C; read-out: CEM/0 cell extracts t 1/2 (converted). As for the experimental part:
The stability of prodrugs 6 and the γ‐alkyl‐NTPs 7 was further investigated in human CD4 ^+ T‐lymphocyte CEM cell extracts. […] Thus, an enzymatic cleavage reaction took place. Half‐lives as low as 0.4 h (6 az) to 5.2 h (6 dz) were determined. […] This is in accordance to our previous results for the DiPPro‐[ ^17 , ^18 ] or the TriPPPro‐compounds 5.[ ^22 , ^23 ] In all cases we observed the predominant formation of γ‐alkyl‐d4TTPs 7 and d4TDP 2 d in very low concentration (Figure 2 B) but no NTP formation was detected, in contrast to the studies using the previously described TriPPPro compounds 5.[ ^23 , ^24 ] However, the difference to the compounds bearing long lipophilic acyl groups was not very pronounced (2‐ to 3‐fold). In the case of γ‐(AB‐C4,alkyl‐C18)‐d4TTP 6 cz, γ‐C18‐d4TTP 7 z was detected as the main product. After 8 h incubation, the ratio of γ‐C18‐d4TTP 7 z and d4TDP 2 d was 5:1. This was in sharp contrast to the studies performed with TriPPPro compounds 5.[ ^23 , ^24 ] There, it was almost impossible to detect significant concentrations of d4TTP due to its fast dephosphorylation to form first d4TDP and finally d4TMP 2 m. […] The formation of thymine or d4TTP 2 t from γ‐C18‐d4TTP 7 z was not detected (Supporting Information, Figure SI2).
as §1
Enzyme-catalyzed hydrolysis of γ-(AB,alkyl)-d4TTPs 6, γ-alkyl-d4TTPs 7,15 and TriPPPros 5 in CEM cell extracts:
18 µL of the appropriate 50 mM DMSO-d6 stock solution was diluted to 6.0 mM hydrolysis solution by addition of 132.0 µL DMSO-d6.
7-10 different samples including 10 µL water and 10 µL hydrolysis solution were prepared in 2 mL Eppendorf® vials. The reaction was started by addition of 50 µL human CEM cell extract and the mixture was incubated at 37 °C for different time periods. The reactions were stopped by addition of 150 μL MeOH. The solution was kept on ice for 5 min followed by centrifugation for 5 min (13000 rpm).
The supernatants were filtered (Chromafil® RC-20/15 MS, 0.2 μm) and stored in liquid nitrogen. When testing, the samples were defrosted and injection volume with 80 μL was used for HPLC analysis. The calculation of t1/2 was performed analogously to that for the chemical hydrolysis studies.
as §2

The test system of the next series is HIV-1(IIIB). Description: Anti-HIV activity assay, HIV-1-infected wild-type CEM/0 cell cultures. Format: cell-based. Particulars: Human immunodeficiency virus 1, IIIB, CCRF-CEM, read-out: EC50 CEM/0 HIV-1. How it is done: (§3) γ‐(AB,alkyl)‐d4TTP prodrugs 6 and the γ‐alkyl‐d4TTPs 7 were evaluated for their ability to inhibit the replication of HIV in HIV‐1‐ or HIV‐2‐infected wild‐type CEM/0 as well as mutant thymidine‐kinase‐deficient CEM cell cultures (CEM/TK^−). For comparison, two TriPPPro derivatives 5 were also included in this assay.
(§4) Anti-HIV activity assay: Inhibition of HIV-1(IIIB)- and HIV-2(ROD)-induced cytopathicity in wild-type CEM/0 and thymidine kinase-deficient CEM/TK- cell cultures was measured in microtiter 96-well plates containing ~3·105 CEM cells/mL infected with 100 CCID50 of HIV per milliliter and containing appropriate dilutions of the test compounds. After 4−5 days of incubation at 37 °C in a CO2-controlled humidified atmosphere, CEM giant (syncytium) cell formation was examined microscopically. […]
(§5) was defined as the compound concentration required to inhibit HIV-induced giant cell formation by 50%. […]
(§6) The result was visualized by fluorescence imaging. […]
as §6

The test system of series [3] is HIV-2(ROD). Description: Anti-HIV activity assay, HIV-2-infected wild-type CEM/0 cell cultures. Type of series: cell-based. Particulars: Human immunodeficiency virus 2, CCRF-CEM, read-out: EC50 CEM/0 HIV-2. As for the experimental part: as §3, §4, §5, §6, §6
The test system of series [4] is HIV-2(ROD). Description: Anti-HIV activity assay, HIV-2-infected thymidine-kinase-deficient CEM/TK- cell cultures. Format: cell-based. The following applies: Human immunodeficiency virus 2, CEM-TK(-), read-out: EC50 CEM/TK− HIV-2, thymidine-kinase-deficient CEM/TK− cells, HIV-2; mean±SD, n=2-3. As for the experimental part:
as §3, §4, §5, §6, §6

Series [5] can be described thus: Cytotoxicity: inhibition of CD4+ T-cell (CEM) proliferation. Format: cell-based. The following applies: human, CEM/0 cells (CD4+ T-cells), 50 % cytostatic concentration, mean±SD, n=2-3.
Series [6] deals with T1, HIV reverse transcriptase (RT) (Human immunodeficiency virus type 1 group M subtype B, UniProt P03366).
T1 construct: reverse transcriptase (RT; an HIV‐encoded RNA‐dependent DNA polymerase); purchased Roboklon
Description: Primer extension assay with HIV-RT. Type of series: biochemical, HIV-1. Particulars: incubation 10, 20, 40 and 60 min; conversion of primer to n+1 product. How it is done: Primer-extension reactions:
HIV-RT and human DNA polymerase β and γ were obtained from Roboklon, human DNA polymerase α was obtained from Chimerx.
The primers and templates were purchased from Life Technologies and Microsynth. The fluorescent labeled primer was purchased
from Metabion and Microsynth. The gels were prepared with the size of 450mm×200mm×0.4mm according to the electrophoresis
5’-FITC and 5’-Cy3 labeled Primer-sequence:
The primer extension assays were performed under the following conditions:
FITC and Cy3 labeled primer extension assay:
1) Hybridization: After 5 min incubation at 95 °C in 20 mM Tris-HCl (pH 7.6) and 50 mM NaCl, the hybridization/annealing of the
primer to the template strand was achieved by a cooling phase from 95 °C to […] lasted more than 2 hours. […]
The assays were separated using a denaturating PAGE (15%). The result was visualized by fluorescence imaging. […]
as §6, §6

Consider `CCCCCCCCCCCOP(=O)(O)OP(=O)(O)OP(=O)(O)OCC1C=CC(n2cc(C)c(=O)[nH]c2=O)O1` (stereo not shown) [7 x, γ‐C11‐d4TTP], for which the “PBS pH 7.3 t 1/2” value in series [1] was “n.h.^[c]”. For the same compound, the half-life at 0.86 mM in series [2] is > 30 h. For the same compound, the EC50 with HIV-1(IIIB) came out at 0.89 ± 0.28 µM; in the series with HIV-2(ROD) [3], 0.26 ± 0.083 µM; in the series on HIV-2(ROD) [4], 16 ± 5 µM. The CC50 in series [5] stood at 78 ± 10 µM. Further, the “comparison of substrate properties for HIV-RT” value in series [6] is given as “better substrates”.

Usually CC50 stands for the concentration at which the toxic effect on the cells reaches its halfway point. Lower therefore signals greater toxicity to the cells.
